In US20250206727A1, “HETEROCYCLIC SUBSTITUTED AROMATIC COMPOUND, PREPARATION METHOD THEREFOR, HERBICIDAL COMPOSITION AND APPLICATION” (QINGDAO KINGAGROOT CHEMICAL COMPOUND CO., LTD., priority 2022, published 2025):

How the values were obtained:
Test in all cases: Post-emergence test on weeds (greenhouse, spray at 2-3 leaf stage)
Assay type in all cases: in vivo
Parameters in all cases: key: Level 10: completely dead; Level 9: growth control rate greater than or equal to 90% and less than 100%; Level 8: growth control rate greater than or equal to 80% and less than 90%; Level 7: growth control rate greater than or equal to 70% and less than 80%; Level 6: growth control rate greater than or equal to 60% and less than 70%; Level 5: growth control rate greater than or equal to 50% and less than 60%; Level 4: growth control rate greater than or equal to 40% and less than 50%; Level 3: growth control rate greater than or equal to 30% and less than 40%; Level 2: growth control rate greater than or equal to 20% and less than 30%; Level 1: growth control rate less than 20%; Level 0: no effect
Details in all cases: 3 weeks after application
[1] = test system: Digitaria sanguinalis
Excerpt: (§1) The activity level criteria for plant damage (i.e., growth control rate) are as follows: • Level 10: completely dead; • Level 9: growth control rate greater than or equal to 90% and less than 100%; • Level 8: growth control rate greater than or equal to 80% and less than 90%; • Level 7: growth control rate greater than or equal to 70% and less than 80%; • Level 6: growth control rate greater than or equal to 60% and less than 70%; • Level 5: growth control rate greater than or equal to 50% and less than 60%; • Level 4: growth control rate greater than or equal to 40% and less than 50%; • Level 3: growth control rate greater than or equal to 30% and less than 40%; • Level 2: growth control rate greater than or equal to 20% and less than 30%; • Level 1: growth control rate less than 20%; • Level 0: no effect.
(§2) The above growth control rates are fresh weight control rates.
(§3) Monocotyledonous and dicotyledonous weed seeds (Descurainia sophia, Capsella bursa-pastoris, Abutilon theophrasti, Galium spurium, Stellaria media, Lithospermum arvense, Rorippa indica, Alopecurus aequalis, Alopecurus japonicus, Eleusine indica, Beckmannia syzigachne, Sclerochloa dura, Erigeron canadensis, Phleum paniculatum, Veronica polita, Bromus japonicus, Aegilops tauschii, Phalaris arundinacea, Amaranthus retrofexus, Chenopodium, Commelina communis, Cichorium endivia, Convolvulus arvensis, Cirsium arvense, Solanum nigrum, Acalypha australis, Digitaria sanguinalis, Echinochloa crus-galli, Setaria viridis, Setaa pumila, Lepochloa chinensis, Monochona vaginalis, Sagitta trifolia, Schoenoplectiella juncoides, Cypenus rotundus, Cyperus ira, Cyperus difformis, Fimbristylis, Portulaca oleracea, Xanthium sibiricum, Ipomoea nil, Eschenbachia japonica, etc.) and major crop seeds (wheat, maize, paddy rice, soybean, cotton, oilseed rape, millet, sorghum, potato, sesame, castor plant, etc.) were placed in plastic pots filled with soil and then covered with 0.5-2 cm of soil to allow them to grow in a favorable greenhouse environment. Two weeks after sowing, the test plants were treated at the stage of 2-3 leaves. The test compounds of the present invention were individually dissolved with acetone, then added with Tween® 80, with 1.5 L/ha of methyl oleate emulsifiable concentrate as a synergist, diluted into solutions of certain concentrations using certain amount of water, and sprayed to the plants using a spray tower. After drug application, the experimental results on weeds were collected after 3 weeks of cultivation in a greenhouse. The compounds were applied at 500, 250, […], 15, and 7.5 g a.i./ha in triplicate, and the results were averaged.

[2] = test system: Veronica polita
Excerpt: as §1, §2, §3

[3] = test system: Abutilon theophrasti
Excerpt: as §1, §2, §3

[4] = test system: Setaria viridis
Excerpt: as §1, §2, §3

[5] = test system: Amaranthus retroflexus
Excerpt: as §1, §2, §3

[6] = test system: Echinochloa crus-galli
Excerpt: as §1, §2, §3

COC(=O)C1(C)ON=C(c2cc(-c3ncc(OC(F)F)cc3Cl)c(F)cc2Cl)O1 (stereo not drawn) [Compound 3]
10: activity level (fresh weight growth control rate), Digitaria sanguinalis ([1]; 60 g a.i./ha) | activity level (fresh weight growth control rate), Veronica polita ([2]; 60 g a.i./ha) | activity level (fresh weight growth control rate), Abutilon theophrasti ([3]; 60 g a.i./ha) | activity level (fresh weight growth control rate), Setaria viridis ([4]; 60 g a.i./ha) | activity level (fresh weight growth control rate), Amaranthus retroflexus ([5]; 60 g a.i./ha) | activity level (fresh weight growth control rate), Echinochloa crus-galli ([6]; 60 g a.i./ha)

COC(=O)C1(C)ON=C(c2cc(-c3ncc(C(F)(F)F)c(F)c3F)c(F)cc2Cl)O1 (stereo not drawn) [Compound 4]
10: activity level (fresh weight growth control rate), Digitaria sanguinalis ([1]; 60 g a.i./ha) | activity level (fresh weight growth control rate), Veronica polita ([2]; 60 g a.i./ha) | activity level (fresh weight growth control rate), Abutilon theophrasti ([3]; 60 g a.i./ha) | activity level (fresh weight growth control rate), Setaria viridis ([4]; 60 g a.i./ha) | activity level (fresh weight growth control rate), Amaranthus retroflexus ([5]; 60 g a.i./ha) | activity level (fresh weight growth control rate), Echinochloa crus-galli ([6]; 60 g a.i./ha)

COC(=O)C1(C)ON=C(c2cc(-c3ncc(Br)cc3Cl)c(F)cc2Cl)O1 (stereo not drawn) [Compound 5]
10: activity level (fresh weight growth control rate), Digitaria sanguinalis ([1]; 60 g a.i./ha) | activity level (fresh weight growth control rate), Veronica polita ([2]; 60 g a.i./ha) | activity level (fresh weight growth control rate), Abutilon theophrasti ([3]; 60 g a.i./ha) | activity level (fresh weight growth control rate), Setaria viridis ([4]; 60 g a.i./ha) | activity level (fresh weight growth control rate), Amaranthus retroflexus ([5]; 60 g a.i./ha) | activity level (fresh weight growth control rate), Echinochloa crus-galli ([6]; 60 g a.i./ha)

COC(=O)C1(C)ON=C(c2cc(-c3ncc(C(F)(F)F)cc3F)c(F)cc2Cl)O1 (stereo not drawn) [Compound 6]
10: activity level (fresh weight growth control rate), Digitaria sanguinalis ([1]; 60 g a.i./ha) | activity level (fresh weight growth control rate), Veronica polita ([2]; 60 g a.i./ha) | activity level (fresh weight growth control rate), Abutilon theophrasti ([3]; 60 g a.i./ha) | activity level (fresh weight growth control rate), Setaria viridis ([4]; 60 g a.i./ha) | activity level (fresh weight growth control rate), Amaranthus retroflexus ([5]; 60 g a.i./ha) | activity level (fresh weight growth control rate), Echinochloa crus-galli ([6]; 60 g a.i./ha)

COC(=O)C1(C)ON=C(c2cc(-c3ncc(F)cc3F)c(F)cc2Cl)O1 (stereo not drawn) [Compound 7]
10: activity level (fresh weight growth control rate), Digitaria sanguinalis ([1]; 60 g a.i./ha) | activity level (fresh weight growth control rate), Veronica polita ([2]; 60 g a.i./ha) | activity level (fresh weight growth control rate), Abutilon theophrasti ([3]; 60 g a.i./ha) | activity level (fresh weight growth control rate), Setaria viridis ([4]; 60 g a.i./ha) | activity level (fresh weight growth control rate), Amaranthus retroflexus ([5]; 60 g a.i./ha) | activity level (fresh weight growth control rate), Echinochloa crus-galli ([6]; 60 g a.i./ha)

COC(=O)C1(C)ON=C(c2cc(-c3ncccc3Cl)c(F)cc2Cl)O1 (stereo not drawn) [Compound 8]
10: activity level (fresh weight growth control rate), Digitaria sanguinalis ([1]; 60 g a.i./ha) | activity level (fresh weight growth control rate), Veronica polita ([2]; 60 g a.i./ha) | activity level (fresh weight growth control rate), Abutilon theophrasti ([3]; 60 g a.i./ha) | activity level (fresh weight growth control rate), Setaria viridis ([4]; 60 g a.i./ha) | activity level (fresh weight growth control rate), Amaranthus retroflexus ([5]; 60 g a.i./ha) | activity level (fresh weight growth control rate), Echinochloa crus-galli ([6]; 60 g a.i./ha)

COC(=O)C1(C)ON=C(c2cc(-c3ncc(C(F)(F)F)cc3Cl)c(F)cc2Br)O1 (stereo not drawn) [Compound 9]
10: activity level (fresh weight growth control rate), Digitaria sanguinalis ([1]; 60 g a.i./ha) | activity level (fresh weight growth control rate), Veronica polita ([2]; 60 g a.i./ha) | activity level (fresh weight growth control rate), Abutilon theophrasti ([3]; 60 g a.i./ha) | activity level (fresh weight growth control rate), Setaria viridis ([4]; 60 g a.i./ha) | activity level (fresh weight growth control rate), Amaranthus retroflexus ([5]; 60 g a.i./ha) | activity level (fresh weight growth control rate), Echinochloa crus-galli ([6]; 60 g a.i./ha)

COC(=O)C1(C)ON=C(c2cc(-c3ncc(C(C)(F)F)cc3Cl)c(F)cc2Cl)O1 (stereo not drawn) [Compound 10]
10: activity level (fresh weight growth control rate), Digitaria sanguinalis ([1]; 60 g a.i./ha) | activity level (fresh weight growth control rate), Veronica polita ([2]; 60 g a.i./ha) | activity level (fresh weight growth control rate), Abutilon theophrasti ([3]; 60 g a.i./ha) | activity level (fresh weight growth control rate), Setaria viridis ([4]; 60 g a.i./ha) | activity level (fresh weight growth control rate), Amaranthus retroflexus ([5]; 60 g a.i./ha) | activity level (fresh weight growth control rate), Echinochloa crus-galli ([6]; 60 g a.i./ha)

COC(=O)C1(C)ON=C(c2cc(-c3ncc(Cl)cc3Cl)c(F)cc2Cl)O1 (stereo not drawn) [Compound 11]
10: activity level (fresh weight growth control rate), Digitaria sanguinalis ([1]; 60 g a.i./ha) | activity level (fresh weight growth control rate), Veronica polita ([2]; 60 g a.i./ha) | activity level (fresh weight growth control rate), Abutilon theophrasti ([3]; 60 g a.i./ha) | activity level (fresh weight growth control rate), Setaria viridis ([4]; 60 g a.i./ha) | activity level (fresh weight growth control rate), Amaranthus retroflexus ([5]; 60 g a.i./ha) | activity level (fresh weight growth control rate), Echinochloa crus-galli ([6]; 60 g a.i./ha)

COC(=O)C1(C)ON=C(c2cc(-c3ncc(C)cc3Cl)c(F)cc2Cl)O1 (stereo not drawn) [Compound 12]
10: activity level (fresh weight growth control rate), Digitaria sanguinalis ([1]; 60 g a.i./ha) | activity level (fresh weight growth control rate), Veronica polita ([2]; 60 g a.i./ha) | activity level (fresh weight growth control rate), Abutilon theophrasti ([3]; 60 g a.i./ha) | activity level (fresh weight growth control rate), Setaria viridis ([4]; 60 g a.i./ha) | activity level (fresh weight growth control rate), Amaranthus retroflexus ([5]; 60 g a.i./ha) | activity level (fresh weight growth control rate), Echinochloa crus-galli ([6]; 60 g a.i./ha)

COC(=O)C1(C)ON=C(c2cc(-c3ncc(Cl)cc3F)c(F)cc2Cl)O1 (stereo not drawn) [Compound 13]
10: activity level (fresh weight growth control rate), Digitaria sanguinalis ([1]; 60 g a.i./ha) | activity level (fresh weight growth control rate), Veronica polita ([2]; 60 g a.i./ha) | activity level (fresh weight growth control rate), Abutilon theophrasti ([3]; 60 g a.i./ha) | activity level (fresh weight growth control rate), Setaria viridis ([4]; 60 g a.i./ha) | activity level (fresh weight growth control rate), Amaranthus retroflexus ([5]; 60 g a.i./ha) | activity level (fresh weight growth control rate), Echinochloa crus-galli ([6]; 60 g a.i./ha)

COC(=O)C1(C)ON=C(c2cc(-c3ncc(F)cc3Cl)c(F)cc2Cl)O1 (stereo not drawn) [Compound 14]
10: activity level (fresh weight growth control rate), Digitaria sanguinalis ([1]; 60 g a.i./ha) | activity level (fresh weight growth control rate), Veronica polita ([2]; 60 g a.i./ha) | activity level (fresh weight growth control rate), Abutilon theophrasti ([3]; 60 g a.i./ha) | activity level (fresh weight growth control rate), Setaria viridis ([4]; 60 g a.i./ha) | activity level (fresh weight growth control rate), Amaranthus retroflexus ([5]; 60 g a.i./ha) | activity level (fresh weight growth control rate), Echinochloa crus-galli ([6]; 60 g a.i./ha)

COC(=O)C1(C)ON=C(c2cc(-c3ncc(C(F)(F)F)cc3Cl)c(F)cc2Cl)O1 (stereo not drawn) [Compound 15]
10: activity level (fresh weight growth control rate), Digitaria sanguinalis ([1]; 15 g a.i./ha) | activity level (fresh weight growth control rate), Veronica polita ([2]; 15 g a.i./ha) | activity level (fresh weight growth control rate), Abutilon theophrasti ([3]; 15 g a.i./ha) | activity level (fresh weight growth control rate), Setaria viridis ([4]; 15 g a.i./ha) | activity level (fresh weight growth control rate), Amaranthus retroflexus ([5]; 15 g a.i./ha) | activity level (fresh weight growth control rate), Echinochloa crus-galli ([6]; 15 g a.i./ha)
